According to patent US20210106703A1, “RADIOIMMUNOCONJUGATES IN COMBINATION WITH OTHER DRUGS AS TREATMENT AGAINST NHL” (Nordic Nanovector ASA, priority 2017, published 2021):
Read-outs that look alike come from different tables or passages of the source.

Tests used:
U2932 cells = test: Real Time Glo viability assay, Betalutin and cell cycle inhibitors (Example 2); format: cell-based, human; details: for viability at 0.1 µM / viability at 1 µM: Homo sapiens, read-out: Growth inhibition (signal treated/control; 1 = no change); for viability at 0.1 µM: U2932, U2932, drug 100 nM; for viability at 1 µM: U2932, U2932, drug 1 μM
Protocol: (§1) Cells were split twice a week 1:3-1:5 depending on cell density. […] Real Time Glo was purchased from Promega. 384 well plates were purchased from Greiner Bio-One.
(§2) Cells were treated for 18-20 h with Betalutin at a final concentration of 1 μg/ml and 2 μg/ml in 6-well cell culture plates with shaking. After treatment, PBS was added to the cells, and the cells pelleted. Cells were first resuspended in 1 ml PBS, then washed twice in PBS and finally diluted in growth medium at the desired concentration. All cell lines were treated at a cell concentration of 2.5*10^6 cells/ml.
(§3) Regardless of cell number the culturing volume was 25 μl. For Real Time Glo, the Cell Viability Substrate and NanoLuc® Enzyme were diluted 1:500 in growth medium, and 25 μL of diluted reagents added to each well. All reagents were equilibrated to 37° C. Cells were incubated with the reaction mix for 1 h at 37° C. before the first measurement of luminescence. Measurements were repeated as often as required within 72 h after adding the reagents. Digitonin was added to cells at 200 μg/ml to record background luminescence of dead cells. A Tecan SPARK 10M plate reader was used to measure luminescence, with an integration time set to 1 sec.
(§4) Growth inhibition was calculated by dividing the luminescence signal of the treated cells by the luminescence signal of the control cells for each day of measurement after start of treatment [Table 1].
(§5) To evaluate effects of the drugs alone [(−)Betalutin] and their combination with Betalutin [(+)Betalutin], we calculated the Z-score for each sample (ZdrugX=1-(+)BetalutindrugX/(−)BetalutindrugX), where (+)BetalutindrugX and (−) BetalutindrugX are the measured luminescence intensity values for drug X in presence and absence of Betalutin, respectively. The calculation of Z-score values separately for each plate enabled comparison of results across plates, despite variations between the plates in overall signal intensity.

RIVA cells = test: as above; format: cell-based, human; details: RIVA; for viability at 0.1 µM / viability at 1 µM: Homo sapiens, read-out: Growth inhibition (signal treated/control; 1 = no change)
Protocol: as §1, §2, §3, §4, §5

SMILES | viability at 0.1 µM (U2932 cells; (+)Betalutin, Dy3) [%] | viability at 0.1 µM (U2932 cells; (+)Betalutin, Dy4) [%] | viability at 0.1 µM (U2932 cells; (+)Betalutin, Dy5) [%] | viability at 0.1 µM (U2932 cells; (+)Betalutin, Dy6) [%] | viability at 0.1 µM (U2932 cells; (−)Betalutin, Dy3) [%] | viability at 0.1 µM (U2932 cells; (−)Betalutin, Dy4) [%] | viability at 0.1 µM (U2932 cells; (−)Betalutin, Dy5) [%] | viability at 0.1 µM (U2932 cells; (−)Betalutin, Dy6) [%] | viability at 1 µM (U2932 cells; (+)Betalutin, Dy3) [%] | viability at 1 µM (U2932 cells; (+)Betalutin, Dy4) [%] | viability at 1 µM (U2932 cells; (+)Betalutin, Dy5) [%] | viability at 1 µM (U2932 cells; (+)Betalutin, Dy6) [%] | viability at 1 µM (U2932 cells; (−)Betalutin, Dy3) [%] | viability at 1 µM (U2932 cells; (−)Betalutin, Dy4) [%] | viability at 1 µM (U2932 cells; (−)Betalutin, Dy5) [%] | viability at 1 µM (U2932 cells; (−)Betalutin, Dy6) [%] | viability at 0.1 µM (RIVA cells; drug 100 nM, +Betalutin, Dy3) [%] | viability at 0.1 µM (RIVA cells; drug 100 nM, +Betalutin, Dy4) [%] | viability at 0.1 µM (RIVA cells; drug 100 nM, +Betalutin, Dy5) [%] | viability at 0.1 µM (RIVA cells; drug 100 nM, +Betalutin, Dy6) [%] | also measured
Nc1nc(Nc2ccc(S(N)(=O)=O)cc2)nn1C(=O)c1c(F)cccc1F [JNJ-7706621] | 83 | 82 | 73 | 72 | 90 | 91 | 107 | 116 | 39 | 26 | 16 | 11 | 53 | 36 | 25 | 20 | 13 | 8 | 4 | 4 | Synergy for the combination with Betalutin (U2932 cells; U2932, drug 100 nM): Bliss; viability at 0.1 µM (RIVA cells; drug 100 nM, −Betalutin, Dy3): 89%; viability at 0.1 µM (RIVA cells; drug 100 nM, −Betalutin, Dy4): 82%; viability at 0.1 µM (RIVA cells; drug 100 nM, −Betalutin, Dy5): 99%; viability at 0.1 µM (RIVA cells; drug 100 nM, −Betalutin, Dy6): 89%; viability at 1 µM (RIVA cells; drug 1 μM, +Betalutin, Dy3): 29%; viability at 1 µM (RIVA cells; drug 1 μM, +Betalutin, Dy4): 13%; viability at 1 µM (RIVA cells; drug 1 μM, +Betalutin, Dy5): 4%; viability at 1 µM (RIVA cells; drug 1 μM, +Betalutin, Dy6): 3%; viability at 1 µM (RIVA cells; drug 1 μM, −Betalutin, Dy3): 50%; viability at 1 µM (RIVA cells; drug 1 μM, −Betalutin, Dy4): 31%; viability at 1 µM (RIVA cells; drug 1 μM, −Betalutin, Dy5): 17%; viability at 1 µM (RIVA cells; drug 1 μM, −Betalutin, Dy6): 14%; Synergy for the combination with Betalutin (RIVA cells; drug 100 nM): Bliss + Z-score; Synergy for the combination with Betalutin (RIVA cells; drug 1 μM): Z-score
C=CCn1c(=O)c2cnc(Nc3ccc(N4CCN(C)CC4)cc3)nc2n1-c1cccc(C(C)(C)O)n1 [MK-1775] | 120 | 95 | 85 | 71 | 100 | 90 | 92 | 103 | 104 | 94 | 89 | 80 | 86 | 89 | 96 | 115 | 49 | 38 | 24 | 23 | viability at 0.1 µM (RIVA cells; drug 100 nM, −Betalutin, Dy3): 100%; viability at 0.1 µM (RIVA cells; drug 100 nM, −Betalutin, Dy4): 89%; viability at 0.1 µM (RIVA cells; drug 100 nM, −Betalutin, Dy5): 94%; viability at 0.1 µM (RIVA cells; drug 100 nM, −Betalutin, Dy6): 94%; viability at 1 µM (RIVA cells; drug 1 μM, +Betalutin, Dy3): 2%; viability at 1 µM (RIVA cells; drug 1 μM, +Betalutin, Dy4): 1%; viability at 1 µM (RIVA cells; drug 1 μM, +Betalutin, Dy5): 1%; viability at 1 µM (RIVA cells; drug 1 μM, +Betalutin, Dy6): 1%; viability at 1 µM (RIVA cells; drug 1 μM, −Betalutin, Dy3): 8%; viability at 1 µM (RIVA cells; drug 1 μM, −Betalutin, Dy4): 4%; viability at 1 µM (RIVA cells; drug 1 μM, −Betalutin, Dy5): 2%; viability at 1 µM (RIVA cells; drug 1 μM, −Betalutin, Dy6): 1%
